{
  "source": "patent US20250129012A1",
  "about": "“ANTI-INFLAMMATORY AND ANALGESIC COMPOUNDS AND USE THEREOF” (JIANGSU ATOM BIOSCIENCE AND PHARMACEUTICAL CO., LTD., priority 2021, published 2025)",
  "type_in_all_cases": "in vivo, SD rats",
  "key": {"[1]": {"system": "gouty arthritis in rats (urate crystals, left ankle joint)", "assay": "Pharmacodynamics experiment A on gouty arthritis in rats: pain score", "parameters": "Pain score: scale not given here", "conditions": "0.6 mg/kg gavage; for Pain versus model group, in words: time points after modeling, P<0.05 or P<0.01; for Pain score: Mean ± SEM", "description": "(§1) Compounds 2, 17, 26 and 27 were prepared by grinding with 0.5% CMC-Na into a suspension of the corresponding concentration (0.06 mg/mL) for gavage before administration, and the volume of administration was 10 mL/kg. […] Before use, 0.5% CMC-Na was used for grinding and prepared into a suspension of the corresponding concentration (0.06 mg/mL) for gavage, and the volume of drug administered was 10 mL/kg.\n(§2) Each group of subjects was prepared into a suspension of the corresponding concentration, and the administration volume was 10 mL/kg.\n(§3) The crystalline arthritis model was prepared by intra-articular injection of urate crystals (40 mg/mL, in the left ankle joint of each rat). Different doses of the test drug were given separately by gavage administration. The day of administration was defined as day 1 of the experiment, and the drug was administered once a day for 10 consecutive days (pre-administration of the drug for 7 days prior to modeling, modeling on day 8, and continuation of the drug for 3 days). The experiment ended on day 10.\nThe pain level was scored using the flexion and extension joint pain test scoring method at the same time point.\n(§4) The data obtained from the experiment were statistically analyzed using IBM SPSS Statistics 22.0. All measurements were expressed as Mean±S.E.M s. The data were analyzed using SPSS 22.0 statistical software and variance chi-square test was performed on the parameters."}, "[2]": {"system": "gouty arthritis in rats (urate crystals, left ankle joint)", "assay": "Pharmacodynamics experiment A on gouty arthritis in rats: paw volume", "conditions": "for Paw volume versus model group, in words: time points after modeling; for Paw volume: Mean ± SEM", "description": "as §1, §2, §3\nPaw volume was measured before administration, before urate injection, and 2, 4, 8, 10, 24, and 48 h after injection.\nas §4"}, "IL-6": {"system": "IL-6", "assay": "Inflammatory factor experiment A: IL-6 in gouty arthritis rats", "conditions": "synovial tissue of knee joints; dose 0.6 mg/kg gavage; day 10", "description": "(§5) Compounds 14, 17 and 26 were prepared by grinding with 0.5% CMC-Na before administration and into a suspension for gavage at the corresponding concentration (0.06 mg/mL), with a dosage volume of 10 mL/kg. Colchicine, purchased from Sun Chemical Technology (Shanghai) Co., Ltd. with batch no. 49ETRRAS, and was prepared by grinding with 0.5% CMC-Na before administration and into a suspension for gavage at the corresponding concentration (0.06 mg/mL), with a dosage volume of 10 mL/kg.\n(§6) The compounds in each group were prepared into a suspension of the corresponding concentration, and the dosage volume was 10 mL/kg.\nas §3, with “(40 mg/mL” for “(40 mg/mL,”, “test compounds” for “test drug”, “the compounds were” for “the drug was”, “10. […]” for “10.”"}, "TNF-α": {"system": "TNF-α", "assay": "Inflammatory factor experiment A: TNF-α in gouty arthritis rats", "conditions": "synovial tissue of knee joints; dose 0.6 mg/kg gavage; day 10", "description": "as §5, §6\nas §3, with “(40 mg/mL” for “(40 mg/mL,”, “test compounds” for “test drug”, “the compounds were” for “the drug was”, “10. […]” for “10.”"}, "[3]": {"system": "gouty arthritis in rats (urate crystals, left ankle joint)", "assay": "Pharmacodynamics experiment A on gouty arthritis in rats: gait score", "parameters": "Gait Score: scale not given here", "conditions": "0.6 mg/kg gavage; for Gait versus model group, in words: time points after modeling, P<0.05 or P<0.01; for Gait Score: Mean ± SEM", "description": "as §1, §2, §3\nThe degree of lameness of the modeled joints was observed and scored at the same time point.\nas §4"}, "[4]": {"conditions": "2 h after modeling, 0.6 mg/kg gavage"}, "[5]": {"conditions": "4 h after modeling, 0.6 mg/kg gavage"}, "[6]": {"conditions": "8 h after modeling, 0.6 mg/kg gavage"}, "[7]": {"conditions": "10 h after modeling, 0.6 mg/kg gavage"}, "[8]": {"conditions": "24 h after modeling, 0.6 mg/kg gavage"}, "[9]": {"conditions": "48 h after modeling, 0.6 mg/kg gavage"}, "[10]": {"conditions": "before modeling, 0.6 mg/kg gavage once a day"}},
  "note": "Marks after values point to notes of the source that are not given here.",
  "data": [
    {"smiles": "COc1cc2c(c(OC)c1OC)-c1cc(C)c(=O)c(OC)cc1[C@@H](NC(C)=O)CC2", "note": "[Compound 17, (S)—N-(1,2,3,9-tetramethoxy-11-methyl-10-oxo-5,6,7,10-tetrahydrobenzo[a]heptalen-7-yl)acetamide]", "values": [
      {"measurement": "Pain versus model group, in words", "setting": "[1]", "result": "significantly improved gait at 2 h, 8 h, and 24 h"},
      {"measurement": "Pain score", "setting": "[1]; 2 h after modeling", "result": "3.10 ± 0.64"},
      {"measurement": "Pain score", "setting": "[1]; 4 h after modeling", "result": "3.20 ± 0.66"},
      {"measurement": "Pain score", "setting": "[1]; 8 h after modeling", "result": "3.00 ± 0.68"},
      {"measurement": "Pain score", "setting": "[1]; 10 h after modeling", "result": "3.30 ± 0.54"},
      {"measurement": "Pain score", "setting": "[1]; 24 h after modeling", "result": "1.30 ± 0.65"},
      {"measurement": "Pain score", "setting": "[1]; 48 h after modeling", "result": "1.60 ± 0.70"},
      {"measurement": "Pain score", "setting": "[1]; before modeling", "result": "0.00 ± 0.00"},
      {"measurement": "Paw volume versus model group, in words", "setting": "[2]; 0.6 mg/kg gavage", "result": "significantly reduce the paw volume at 2 h, 8 h, 24 h, and 48 h"},
      {"measurement": "Paw volume", "setting": "[2]; [4]", "result": "2.54 ± 0.02** cm^3"},
      {"measurement": "Paw volume", "setting": "[2]; [5]", "result": "2.58 ± 0.02", "unit": "cm^3"},
      {"measurement": "Paw volume", "setting": "[2]; [6]", "result": "2.54 ± 0.04* cm^3"},
      {"measurement": "Paw volume", "setting": "[2]; [7]", "result": "2.55 ± 0.03", "unit": "cm^3"},
      {"measurement": "Paw volume", "setting": "[2]; [8]", "result": "2.41 ± 0.05** cm^3"},
      {"measurement": "Paw volume", "setting": "[2]; [9]", "result": "2.23 ± 0.03*** cm^3"},
      {"measurement": "Paw volume", "setting": "[2]; [10]", "result": "2.19 ± 0.03", "unit": "cm^3"},
      {"measurement": "Decreased IL-6 percentage %", "setting": "IL-6", "result": 132.54, "unit": "%"},
      {"measurement": "Decreased TNF-α percentage %", "setting": "TNF-α", "result": 107.16, "unit": "%"},
      {"measurement": "Gait versus model group, in words", "setting": "[3]", "result": "significantly improved the gait at 2 h, 8 h, and 24 h"},
      {"measurement": "Gait Score", "setting": "[3]; 2 h after modeling", "result": "1.00 ± 0.00"},
      {"measurement": "Gait Score", "setting": "[3]; 4 h after modeling", "result": "1.20 ± 0.13"},
      {"measurement": "Gait Score", "setting": "[3]; 8 h after modeling", "result": "1.00 ± 0.00"},
      {"measurement": "Gait Score", "setting": "[3]; 10 h after modeling", "result": "1.10 ± 0.10"},
      {"measurement": "Gait Score", "setting": "[3]; 24 h after modeling", "result": "1.10 ± 0.10"},
      {"measurement": "Gait Score", "setting": "[3]; 48 h after modeling", "result": "1.10 ± 0.10"},
      {"measurement": "Gait Score", "setting": "[3]; before modeling", "result": "0.00 ± 0.00"}
    ]},
    {"smiles": "COc1cc2c(c(OC)c1OC)-c1ccc(OC3CCOC3)c(=O)cc1[C@@H](NC(C)=O)CC2", "note": "(stereo partly drawn) [Compound 26, (S)—N-(1,2,3-trimethoxy-9-oxo-10-[(tetrahydrofuran-3-yl)oxy]-5,6,7,9-tetrahydrobenzo[a]heptalen-7-yl)acetamide]", "values": [
      {"measurement": "Pain versus model group, in words", "setting": "[1]", "result": "significantly improved gait at 2 h"},
      {"measurement": "Pain score", "setting": "[1]; 2 h after modeling", "result": "3.00 ± 0.56"},
      {"measurement": "Pain score", "setting": "[1]; 4 h after modeling", "result": "2.90 ± 0.67"},
      {"measurement": "Pain score", "setting": "[1]; 8 h after modeling", "result": "4.30 ± 0.40"},
      {"measurement": "Pain score", "setting": "[1]; 10 h after modeling", "result": "3.80 ± 0.59"},
      {"measurement": "Pain score", "setting": "[1]; 24 h after modeling", "result": "3.20 ± 0.51"},
      {"measurement": "Pain score", "setting": "[1]; 48 h after modeling", "result": "2.20 ± 0.73"},
      {"measurement": "Pain score", "setting": "[1]; before modeling", "result": "0.00 ± 0.00"},
      {"measurement": "Paw volume versus model group, in words", "setting": "[2]; 0.6 mg/kg gavage", "result": "significantly reduce the paw volume at 2 h, 4 h, and 48 h"},
      {"measurement": "Paw volume", "setting": "[2]; [4]", "result": "2.53 ± 0.04* cm^3"},
      {"measurement": "Paw volume", "setting": "[2]; [5]", "result": "2.54 ± 0.03* cm^3"},
      {"measurement": "Paw volume", "setting": "[2]; [6]", "result": "2.55 ± 0.04", "unit": "cm^3"},
      {"measurement": "Paw volume", "setting": "[2]; [7]", "result": "2.57 ± 0.05", "unit": "cm^3"},
      {"measurement": "Paw volume", "setting": "[2]; [8]", "result": "2.47 ± 0.06", "unit": "cm^3"},
      {"measurement": "Paw volume", "setting": "[2]; [9]", "result": "2.34 ± 0.07* cm^3"},
      {"measurement": "Paw volume", "setting": "[2]; [10]", "result": "2.19 ± 0.04", "unit": "cm^3"},
      {"measurement": "Decreased IL-6 percentage %", "setting": "IL-6", "result": 113.37, "unit": "%"},
      {"measurement": "Decreased TNF-α percentage %", "setting": "TNF-α", "result": 160.36, "unit": "%"},
      {"measurement": "Gait versus model group, in words", "setting": "[3]", "result": "significantly improved the gait at 2 h, 8 h, and 24 h"},
      {"measurement": "Gait Score", "setting": "[3]; 2 h after modeling", "result": "1.00 ± 0.00"},
      {"measurement": "Gait Score", "setting": "[3]; 4 h after modeling", "result": "1.10 ± 0.10"},
      {"measurement": "Gait Score", "setting": "[3]; 8 h after modeling", "result": "1.20 ± 0.13"},
      {"measurement": "Gait Score", "setting": "[3]; 10 h after modeling", "result": "1.30 ± 0.15"},
      {"measurement": "Gait Score", "setting": "[3]; 24 h after modeling", "result": "1.10 ± 0.10"},
      {"measurement": "Gait Score", "setting": "[3]; 48 h after modeling", "result": "1.10 ± 0.10"},
      {"measurement": "Gait Score", "setting": "[3]; before modeling", "result": "0.00 ± 0.00"}
    ]}
  ]
}
